Assay results from patent US7880010B2, “Crystalline forms of a dimethylphenyl compound” (Theravance, Inc., priority 2006, dated 2011).

Experiments:
Assay in all cases: Radioligand binding assay for human β adrenergic receptors
[1] = target: T1, human β1 adrenergic receptor (Homo sapiens, UniProt P08588); settings: [3H]-dihydroalprenolol 1 nM
T1 construct: expressed in transfected cells; host or cells: HEK-293
Procedure: (§1) Human embryonic kidney (HEK-293) cell lines stably expressing cloned human β1 and β2 adrenergic receptors or Chinese hamster ovarian (CHO) cell lines stably expressing cloned human β3 adrenergic receptors were grown to near confluency in DMEM or Hams F-12 media with 10% FBS in the presence of 500 μg/mL Geneticin. The cell monolayer was lifted with 2 mM EDTA in PBS. Cells were pelleted by centrifugation at 1,000 rpm, and cell pellets were either stored frozen at −80° C. or membranes were prepared immediately for use. For preparation of β1 and β2 receptor expressing membranes, cell pellets were re-suspended in lysis buffer (10 mM HEPES/HCl, 10 mM EDTA, pH 7.4 at 4° C.) and homogenized using a tight-fitting Dounce glass homogenizer (30 strokes) on ice. […] The protein concentration of the membrane suspension was determined by the methods described in Lowry et al., 1951, Journal of Biological Chemistry, 193, 265; and Bradford, Analytical Biochemistry, 1976, 72, 248-54. […]
(§2) Binding assays were performed in 96-well microtiter plates in a total assay volume of 100 μL with 10-15 μg of membrane protein containing the human β1, β2 or β3 adrenergic receptors in assay buffer (75 mM Tris/HCl pH 7.4 at 25° C., 12.5 mM MgCl2, 1 mM EDTA, 0.2% BSA). […] Non-specific binding was determined in the presence of 10 μM propranolol. […] Filter plates were washed three times with filtration buffer (75 mM Tris/HCl pH 7.4 at 4° C., 12.5 mM MgCl2, 1 mM EDTA) to remove unbound radioactivity. The plates were then dried and 50 μL of Microscint-20 liquid scintillation fluid (Packard BioScience Co., Meriden, Conn.) was added and plates were counted in a Packard Topcount liquid scintillation counter (Packard BioScience Co., Meriden, Conn.). Binding data were analyzed by nonlinear regression analysis with the GraphPad Prism Software package (GraphPad Software, Inc., San Diego, Calif.) using the 3-parameter model for one-site competition. The curve minimum was fixed to the value for nonspecific binding, as determined in the presence of 10 μM propranolol. […]

[2] = target: T2, human β2 adrenergic receptor (Homo sapiens, UniProt P07550); settings: [3H]-dihydroalprenolol 1 nM
T2 construct: expressed in transfected cells; host or cells: HEK-293
T2 sequence (P07550 whole entry): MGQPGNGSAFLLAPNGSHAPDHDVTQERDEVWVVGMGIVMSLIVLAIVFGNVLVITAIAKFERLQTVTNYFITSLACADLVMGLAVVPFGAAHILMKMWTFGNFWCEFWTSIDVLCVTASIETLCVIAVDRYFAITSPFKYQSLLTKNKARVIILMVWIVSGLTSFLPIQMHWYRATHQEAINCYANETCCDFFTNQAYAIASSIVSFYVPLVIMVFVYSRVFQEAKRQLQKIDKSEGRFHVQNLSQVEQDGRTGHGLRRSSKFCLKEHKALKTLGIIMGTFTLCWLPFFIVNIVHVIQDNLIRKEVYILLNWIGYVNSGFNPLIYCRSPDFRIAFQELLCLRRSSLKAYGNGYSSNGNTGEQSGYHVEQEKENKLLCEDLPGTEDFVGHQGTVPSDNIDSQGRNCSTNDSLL
Procedure: as §1, §2

[3] = target: T3, human β3 adrenergic receptor (Homo sapiens, UniProt P13945); settings: [125I]-(−)-iodocyanopindolol 0.5 nM
T3 construct: expressed in transfected cells; host or cells: CHO / CHO-K1
T3 sequence (P13945 whole entry): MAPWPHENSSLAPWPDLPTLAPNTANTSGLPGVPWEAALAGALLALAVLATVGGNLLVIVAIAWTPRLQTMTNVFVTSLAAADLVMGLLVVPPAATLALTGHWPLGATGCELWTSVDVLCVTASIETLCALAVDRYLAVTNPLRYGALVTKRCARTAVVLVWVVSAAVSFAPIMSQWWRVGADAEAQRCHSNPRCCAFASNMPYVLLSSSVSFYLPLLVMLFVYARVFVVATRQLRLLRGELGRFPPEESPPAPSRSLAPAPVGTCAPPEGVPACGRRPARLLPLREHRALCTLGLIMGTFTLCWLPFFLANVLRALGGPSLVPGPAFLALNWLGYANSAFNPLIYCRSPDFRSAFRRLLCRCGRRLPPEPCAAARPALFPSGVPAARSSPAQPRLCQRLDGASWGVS
Procedure: as §1, §2

T1 sequence (P08588 whole entry): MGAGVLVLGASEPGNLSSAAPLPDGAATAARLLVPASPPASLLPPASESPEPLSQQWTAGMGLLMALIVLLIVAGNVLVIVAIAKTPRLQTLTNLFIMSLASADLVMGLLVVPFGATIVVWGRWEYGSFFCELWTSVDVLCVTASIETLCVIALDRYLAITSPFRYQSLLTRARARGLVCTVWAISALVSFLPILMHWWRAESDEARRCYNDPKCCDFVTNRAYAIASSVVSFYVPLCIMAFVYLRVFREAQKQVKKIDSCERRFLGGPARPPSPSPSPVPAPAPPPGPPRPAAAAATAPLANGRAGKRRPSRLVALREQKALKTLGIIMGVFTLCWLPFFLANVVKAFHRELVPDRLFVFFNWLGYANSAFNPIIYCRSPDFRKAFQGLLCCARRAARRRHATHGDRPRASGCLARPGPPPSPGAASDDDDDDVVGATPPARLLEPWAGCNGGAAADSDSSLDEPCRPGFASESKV

Ki [1]: > 1000 nM | Ki [2]: < 10 nM | Ki [3]: > 1000 nM
SMILES: Cc1cc(NC(=O)CCN2CCC(OC(=O)Nc3ccccc3-c3ccccc3)CC2)c(C)cc1CNC[C@H](O)c1ccc(O)c(NC=O)c1 [compound of formula I, biphenyl-2-ylcarbamic acid 1-[2-(4-{[(R)-2-(3-formylamino-4-hydroxyphenyl)-2-hydroxyethylamino]methyl}-2,5-dimethylphenylcarbamoyl)ethyl]-piperidin-4-yl ester]
